Experimental data as given in patent publication US6410575B1, “Viral treatment” (The Procter & Gamble Company, priority 1999, dated 2002).
In brackets after ≈: the same amount, converted by molar mass. Several values for one entry are separate records, joined by “and”; a condition that tells them apart may be missing. Equal values may be shown once. Read-outs that look alike come from different tables or passages of the source.

Experiments:
HIV-1 cell line, CEMIIIB = test: Long term in vitro study, CEMIIIB; format: cell-based
Description: (§1) Toxicity quantification involves the XTT-based evaluation. Assays were designed to characterize the long term effects of the compounds on virus production and to characterize the longer term effects of the compounds on virus production from chronically HIV infected cells.
(§2) CEM-SS cells chronically infected with HIV isolate, for example SKI (CEM-SKI) are cultured in RPMI1640 tissue culture medium supplemented with 10% fetal bovine serum and antibiotics. […] CEM-SKI or other infected cells with no added drug are used as the control cells.
(§3) Cells are allowed to grow to a density of approximately 1×10^6 cells/ml and are then passaged at a 1:10 dilution. […] The drug concentration in the flask is then increased two-fold and the cells maintained as above.
(§4) The cell populations contain integrated copies of the HIV genome and constitutively produce HIV at relatively high levels or are latently infected and only produce virus after stimulation with phorbol esters, tumor necrosis factor or IL6(U1 and ACH2). Reductions in virus products were observed when quantifying supernatant reverse transcriptase activity.
The results with CEMIIIB cells was reported at weekly intervals.
The CEMIIIB is a viral strain of the CEMSS cell line.

hepatitis B = test: In vitro virus production test of hepatitis B, HEPG2 2.2.15; format: cell-based; details: for IC50: Hepatitis B virus, HepG2 2.2.15, hepatitis B, read-out: IC50
[1] = system: Human Herpes Virus 8 (HHV8); test: Kaposi's sarcoma / HHV8 DNA copy number in TPA-induced BCBL-1 cells; format: cell-based
Description: The DNA copy number and the toxicity value were measured and compared with Cidofovir. Kaposi's sarcoma (KS) is a cancer that is often found in people with weak immune systems, such as those taking immunosuppressants or those with AIDS. The exact nature of the disease is uncertain, but it is almost always found in association with HHV8.

HSV-2MS = test: Herpes simplex testing in vero cells; format: cell-based, herpes simplex virus -2; details: HSV-2MS in vero cells
[2] = system: U937RF, a protease resistant strain; test: Long term in vitro study, U937RF; format: cell-based, HIV
Description: as §1, §2, §3, §4
The results with U937RF cells were reported at weekly intervals.

Cryptococcus neoformans = test: Anti-fungal activity, MFC (NCCLS M-27A based); format: cell-based
Description: (§5) It was active against Cryptococcus neoformans and Curvularia lunata. The cidal activity for the C. neoformans is high enough that it is clear […] against this yeast. This test was conducted using a method based upon NCCLS reference method M-27A published in 1997. Solvent, medium and growth controls were set-up with the tests. Once these were read to validate the test performance, the QC fungi were read to insure they had expected results. These steps validated the test system. DMSO was used as a drug-chemical solvent. […] The 90% cut-off is necessary for azoles, which are static and not cidal. The […] or cidal level, was determined by sub-culturing a sample from each tube showing no growth.

Curvularia lunata = test: Anti-fungal activity, MIC (NCCLS M-27A based); format: cell-based
Description: as §5

NC(=S)Nc1nsc(-c2ccccc2)n1
virus production (supernatant reverse transcriptase activity) (HIV-1 cell line, CEMIIIB; 7 μg/ml, day 4): 4849 | virus production (supernatant reverse transcriptase activity) (HIV-1 cell line, CEMIIIB; 7 μg/ml, day 11): 6658 | virus production (supernatant reverse transcriptase activity) (HIV-1 cell line, CEMIIIB; 7 μg/ml, day 18): 7078 | virus production (supernatant reverse transcriptase activity) (HIV-1 cell line, CEMIIIB; 7 μg/ml, day 25): 5221 | virus production (supernatant reverse transcriptase activity) (HIV-1 cell line, CEMIIIB; 7 μg/ml, day 32): 5329 | virus production (supernatant reverse transcriptase activity) (HIV-1 cell line, CEMIIIB; 7 μg/ml, day 39): 7349 | virus production (supernatant reverse transcriptase activity) (HIV-1 cell line, CEMIIIB; 7 μg/ml, day 46): 11262 | virus production (supernatant reverse transcriptase activity) (HIV-1 cell line, CEMIIIB; 7 μg/ml, day 53): 11286 | virus production (supernatant reverse transcriptase activity) (HIV-1 cell line, CEMIIIB; 15 μg/ml, day 4): 5078 | virus production (supernatant reverse transcriptase activity) (HIV-1 cell line, CEMIIIB; 15 μg/ml, day 11): 5733 | virus production (supernatant reverse transcriptase activity) (HIV-1 cell line, CEMIIIB; 15 μg/ml, day 18): 6057 | virus production (supernatant reverse transcriptase activity) (HIV-1 cell line, CEMIIIB; 15 μg/ml, day 25): 4980 | virus production (supernatant reverse transcriptase activity) (HIV-1 cell line, CEMIIIB; 15 μg/ml, day 32): 4273 | virus production (supernatant reverse transcriptase activity) (HIV-1 cell line, CEMIIIB; 15 μg/ml, day 39): 6329 | virus production (supernatant reverse transcriptase activity) (HIV-1 cell line, CEMIIIB; 15 μg/ml, day 46): 10361 | virus production (supernatant reverse transcriptase activity) (HIV-1 cell line, CEMIIIB; 15 μg/ml, day 53): 9844 | virus production (supernatant reverse transcriptase activity) (HIV-1 cell line, CEMIIIB; 30 μg/ml, day 4): 5251 | virus production (supernatant reverse transcriptase activity) (HIV-1 cell line, CEMIIIB; 30 μg/ml, day 11): 6200 | virus production (supernatant reverse transcriptase activity) (HIV-1 cell line, CEMIIIB; 30 μg/ml, day 18): 6952 | virus production (supernatant reverse transcriptase activity) (HIV-1 cell line, CEMIIIB; 30 μg/ml, day 25): 4110 | virus production (supernatant reverse transcriptase activity) (HIV-1 cell line, CEMIIIB; 30 μg/ml, day 32): 3337 | virus production (supernatant reverse transcriptase activity) (HIV-1 cell line, CEMIIIB; 30 μg/ml, day 39): 4233 | virus production (supernatant reverse transcriptase activity) (HIV-1 cell line, CEMIIIB; 30 μg/ml, day 46): 9238 | virus production (supernatant reverse transcriptase activity) (HIV-1 cell line, CEMIIIB; 30 μg/ml, day 53): 3527 | % virus control (hepatitis B; 0.64 μg/ml): 55.1% | DNA Copy Number (per 3 μl), mean (hepatitis B; 0.64 μg/ml): 145.8 per 3 μl | DNA Copy Number (per 3 μl), sample (hepatitis B; 0.64 μg/ml): 131.5 per 3 μl and 155.2 per 3 μl and 150.8 per 3 μl | % virus control (hepatitis B; 2 μg/ml): 31.9% | DNA Copy Number (per 3 μl), mean (hepatitis B; 2 μg/ml): 84.3 per 3 μl | % virus control (hepatitis B; 6.4 μg/ml): 36.1% | DNA Copy Number (per 3 μl), mean (hepatitis B; 6.4 μg/ml): 95.4 per 3 μl | % virus control (hepatitis B; 20 μg/ml): 15.8% | DNA Copy Number (per 3 μl), mean (hepatitis B; 20 μg/ml): 41.9 per 3 μl | % virus control (hepatitis B; 64 μg/ml): 33.1% | DNA Copy Number (per 3 μl), mean (hepatitis B; 64 μg/ml): 87.5 per 3 μl | DNA Copy Number (per 3 μl), sample (hepatitis B; 64 μg/ml): 98.6 per 3 μl and 76.0 per 3 μl and 87.8 per 3 μl | % virus control (hepatitis B; 200 μg/ml): 22.7% | DNA Copy Number (per 3 μl), mean (hepatitis B; 200 μg/ml): 60.0 per 3 μl | IC50 (hepatitis B; HEPG2 2.2.15, replicate experiment): 0.76 µg/mL (≈ 3.22 µM) | IC50 (hepatitis B; HEPG2 2.2.15): 0.94 µg/mL (≈ 3.98 µM) | therapeutic index or TI (hepatitis B; hepatitis B, HEPG2 2.2.15): 212.8 | TI (hepatitis B; hepatitis B, HEPG2 2.2.15, replicate experiment): 263.2 | % virus control ([1]; 0.64 μM): 79.1% | DNA Copy Number (per 3 μl), average ([1]; 0.64 μM): 12198.1 per 3 μl | DNA Copy Number (per 3 μl), sample ([1]; 0.64 μM): 1200.5 per 3 μl and 1258.4 per 3 μl and 1198.4 per 3 μl | % virus control ([1]; 2 μM): 71.2% | DNA Copy Number (per 3 μl), average ([1]; 2 μM): 1096.9 per 3 μl | DNA Copy Number (per 3 μl), sample ([1]; 2 μM): 1100.2 per 3 μl and 1000.7 per 3 μl and 1189.7 per 3 μl | % virus control ([1]; 6.4 μM): 67.0% | DNA Copy Number (per 3 μl), average ([1]; 6.4 μM): 1032.6 per 3 μl | DNA Copy Number (per 3 μl), sample ([1]; 6.4 μM): 1003.5 per 3 μl and 1084.5 per 3 μl and 1009.7 per 3 μl | % virus control ([1]; 20 μM): 55.8% | DNA Copy Number (per 3 μl), average ([1]; 20 μM): 860.2 per 3 μl | DNA Copy Number (per 3 μl), sample ([1]; 20 μM): 747.8 per 3 μl and 841.6 per 3 μl and 991.2 per 3 μl | % virus control ([1]; 64 μM): 48.9% | DNA Copy Number (per 3 μl), average ([1]; 64 μM): 753.0 per 3 μl | % virus control ([1]; 200 μM): 26.6% | DNA Copy Number (per 3 μl), average ([1]; 200 μM): 410.7 per 3 μl | TI ([1]; HHV8, BCBL-1 cells): TI = 1.8 | IC50 ([1]; Human gammaherpesvirus 8, BCBL1, HHV8 DNA copy number, BCBL-1 cells): 56.8 µM | TI or therapeutic index (HSV-2MS): > 1.3 | virus production (supernatant reverse transcriptase activity) ([2]; 7 μg/ml, day 4): 1627 | virus production (supernatant reverse transcriptase activity) ([2]; 7 μg/ml, day 11): 1526 | virus production (supernatant reverse transcriptase activity) ([2]; 7 μg/ml, day 18): 4086 | virus production (supernatant reverse transcriptase activity) ([2]; 7 μg/ml, day 25): 5303 | virus production (supernatant reverse transcriptase activity) ([2]; 7 μg/ml, day 32): 4827 | virus production (supernatant reverse transcriptase activity) ([2]; 7 μg/ml, day 39): 6008 | virus production (supernatant reverse transcriptase activity) ([2]; 7 μg/ml, day 46): 3586 | virus production (supernatant reverse transcriptase activity) ([2]; 7 μg/ml, day 53): 5726 | virus production (supernatant reverse transcriptase activity) ([2]; 15 μg/ml, day 4): 1575 | virus production (supernatant reverse transcriptase activity) ([2]; 15 μg/ml, day 11): 1482 | virus production (supernatant reverse transcriptase activity) ([2]; 15 μg/ml, day 18): 3772 | virus production (supernatant reverse transcriptase activity) ([2]; 15 μg/ml, day 25): 2654 | virus production (supernatant reverse transcriptase activity) ([2]; 15 μg/ml, day 32): 1594 | virus production (supernatant reverse transcriptase activity) ([2]; 15 μg/ml, day 39): 3538 | virus production (supernatant reverse transcriptase activity) ([2]; 15 μg/ml, day 46): 2426 | virus production (supernatant reverse transcriptase activity) ([2]; 15 μg/ml, day 53): 3976 | virus production (supernatant reverse transcriptase activity) ([2]; 30 μg/ml, day 4): 1751 | virus production (supernatant reverse transcriptase activity) ([2]; 30 μg/ml, day 11): 1237 | virus production (supernatant reverse transcriptase activity) ([2]; 30 μg/ml, day 18): 2892 | virus production (supernatant reverse transcriptase activity) ([2]; 30 μg/ml, day 25): 735 | virus production (supernatant reverse transcriptase activity) ([2]; 30 μg/ml, day 32): 1035 | virus production (supernatant reverse transcriptase activity) ([2]; 30 μg/ml, day 39): 1265 | virus production (supernatant reverse transcriptase activity) ([2]; 30 μg/ml, day 46): 1358 | virus production (supernatant reverse transcriptase activity) ([2]; 30 μg/ml, day 53): 2333 | anti-fungal activity in vitro (Cryptococcus neoformans): active | MFC (Cryptococcus neoformans; cidal level, read-out: MFC): 32 µg/mL (≈ 135 µM) | anti-fungal activity in vitro (Curvularia lunata): active | MIC (Curvularia lunata; growth inhibited or reduced at least 90%, read-out: MIC): 0.03 µg/mL (≈ 0.127 µM)
